Assay results published in ChEMBL document CHEMBL1201862, “PubChem BioAssay data set” (2004).
Activity calls are given as the source filed them.

Assays:
[1] = target: Voltage-gated N-type calcium channel alpha-1B subunit/Amyloid beta A4 precursor protein-binding family A member 1 (Homo sapiens, UniProt Q00975+Q02410); type: protein assay
Large T antigen = Large T antigen (Simian virus 40, UniProt P03070); type: functional, Betapolyomavirus macacae;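 further: Confirmatory-stage PubChem screen for compounds that inhibit SV40 T antigen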
[2] = target: T1, Bifunctional protein GlmU (Mycobacterium tuberculosis, UniProt P9WMN3); assay: Inhibitors of Mycobacterial Glucosamine-1-phosphate acetyl transferase (GlmU). Secondary screen.; design: species or system Mycobacterium tuberculosis H37Rv
T1 sequence (P9WMN3 whole entry): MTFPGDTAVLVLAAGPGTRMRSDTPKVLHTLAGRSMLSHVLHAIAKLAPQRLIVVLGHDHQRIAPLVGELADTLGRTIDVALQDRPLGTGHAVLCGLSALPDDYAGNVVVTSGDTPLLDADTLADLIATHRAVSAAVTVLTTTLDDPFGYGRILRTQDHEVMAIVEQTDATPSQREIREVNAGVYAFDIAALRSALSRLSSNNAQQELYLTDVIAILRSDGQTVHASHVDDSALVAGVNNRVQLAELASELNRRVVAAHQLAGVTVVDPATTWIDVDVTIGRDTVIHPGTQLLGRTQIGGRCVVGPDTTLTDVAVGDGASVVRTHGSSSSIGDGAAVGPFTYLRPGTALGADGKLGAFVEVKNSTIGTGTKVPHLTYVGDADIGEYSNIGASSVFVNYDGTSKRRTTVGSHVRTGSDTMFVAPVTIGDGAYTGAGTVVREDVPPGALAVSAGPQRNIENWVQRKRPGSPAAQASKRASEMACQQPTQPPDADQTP

Troponin, cardiac muscle = Troponin, cardiac muscle (Homo sapiens, UniProt P19429+P45379+P63316); assay: compounds desensitizing RTF to calcium – biochemical, fluorescence, cardiac regulated thin filaments, triplicate IC50, dose response (AID 504742); type: protein-complex assay
Aminopeptidase N = target: T2, Aminopeptidase N (Plasmodium falciparum FcB1/Columbia, UniProt O96935); assay: malaria alanyl aminopeptidase activity blockers – biochemical, fluorogenic H-Leu-NHMec substrate, 1536-well (AID 1445); design: species or system Plasmodium falciparum 3D7, 3D7
T2 sequence (O96935 whole entry): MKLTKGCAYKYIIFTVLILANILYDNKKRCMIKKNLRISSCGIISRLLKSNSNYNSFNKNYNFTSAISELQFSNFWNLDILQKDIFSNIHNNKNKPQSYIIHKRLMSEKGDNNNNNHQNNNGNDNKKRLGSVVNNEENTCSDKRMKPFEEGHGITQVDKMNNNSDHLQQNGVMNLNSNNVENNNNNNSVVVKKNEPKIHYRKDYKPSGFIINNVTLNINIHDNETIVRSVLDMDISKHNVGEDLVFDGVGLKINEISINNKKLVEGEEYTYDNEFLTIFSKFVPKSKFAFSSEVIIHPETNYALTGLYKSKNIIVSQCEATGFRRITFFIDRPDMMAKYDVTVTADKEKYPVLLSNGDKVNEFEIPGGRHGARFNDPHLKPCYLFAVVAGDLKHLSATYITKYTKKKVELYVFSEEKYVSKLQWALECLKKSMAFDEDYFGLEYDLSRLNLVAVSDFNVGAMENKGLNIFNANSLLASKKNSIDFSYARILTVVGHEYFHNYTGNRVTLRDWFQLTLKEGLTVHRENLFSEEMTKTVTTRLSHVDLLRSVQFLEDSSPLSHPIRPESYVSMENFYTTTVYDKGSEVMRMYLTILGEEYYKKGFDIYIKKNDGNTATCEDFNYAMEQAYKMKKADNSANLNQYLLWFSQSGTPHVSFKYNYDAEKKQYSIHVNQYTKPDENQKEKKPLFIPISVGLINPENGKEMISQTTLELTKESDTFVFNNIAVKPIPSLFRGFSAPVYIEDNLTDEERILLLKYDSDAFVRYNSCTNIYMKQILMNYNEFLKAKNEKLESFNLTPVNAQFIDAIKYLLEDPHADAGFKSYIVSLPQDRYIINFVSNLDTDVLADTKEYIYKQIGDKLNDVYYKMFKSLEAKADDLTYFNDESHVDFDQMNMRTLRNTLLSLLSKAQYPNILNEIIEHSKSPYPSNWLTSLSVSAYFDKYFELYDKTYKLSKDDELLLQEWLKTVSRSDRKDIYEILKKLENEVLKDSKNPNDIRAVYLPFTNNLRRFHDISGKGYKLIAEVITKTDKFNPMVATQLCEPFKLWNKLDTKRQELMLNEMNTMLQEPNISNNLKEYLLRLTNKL

[3] = target: Glucose-6-phosphate 1-dehydrogenase (Homo sapiens, UniProt P11413); assay: inhibition of Homo sapiens G6PD, dose series – biochemical, fluorescence, selectivity assay for P. falciparum G6PD inhibitor project, dose response (AID 504792); type: functional
Aspartyl aminopeptidase = target: T3, Aspartyl aminopeptidase (Plasmodium falciparum 3D7, UniProt Q8I2J3)
T3 sequence (Q8I2J3 whole entry): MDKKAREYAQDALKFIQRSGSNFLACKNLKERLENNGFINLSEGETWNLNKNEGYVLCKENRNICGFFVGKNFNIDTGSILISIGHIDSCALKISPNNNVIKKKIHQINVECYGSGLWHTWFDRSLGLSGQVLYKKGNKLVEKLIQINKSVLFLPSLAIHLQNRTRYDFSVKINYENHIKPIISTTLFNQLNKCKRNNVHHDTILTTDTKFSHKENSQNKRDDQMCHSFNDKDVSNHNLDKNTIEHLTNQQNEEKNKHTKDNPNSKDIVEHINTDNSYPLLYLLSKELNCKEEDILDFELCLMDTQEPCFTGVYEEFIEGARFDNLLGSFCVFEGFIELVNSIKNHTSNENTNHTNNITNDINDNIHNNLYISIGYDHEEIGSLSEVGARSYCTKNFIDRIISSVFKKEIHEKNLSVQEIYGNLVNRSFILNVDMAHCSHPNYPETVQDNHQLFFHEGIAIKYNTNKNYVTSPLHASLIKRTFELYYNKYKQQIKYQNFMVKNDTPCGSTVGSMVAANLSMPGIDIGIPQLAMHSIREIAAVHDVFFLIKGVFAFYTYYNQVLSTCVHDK

Procathepsin L = Procathepsin L (Homo sapiens, UniProt P07711)
[4] = target: Polyadenylate-binding protein 1 (Homo sapiens, UniProt P11940); assay: MLLE domain peptide-binding blockers, IC50 – biochemical, fluorescence polarization, FITC-PAM2 peptide, dose response (AID 602259); type: functional; settings: read-out: IC50_Mean
[5] = target: Histone-lysine N-methyltransferase NSD2 (Homo sapiens, UniProt O96028); type: biochemical
[6] = A549 cell cytotoxicity, dose response, cytotoxicity control, plate reader, cherry-pick, antagonist series (AID 743412); type: functional, cell-based
[7] = toxicity toward HepG2 liver cells – cell-based, plate reader, cherry-pick, antagonist series, cytotoxicity control, dose response (AID 743416); type: functional
[8] = target: Glutathione-S-transferase (Schistosoma japonicum, UniProt Q26513); assay: GST-antibody interaction or FRET quenching – biochemical, TR-FRET, artefact control for Vif-APOBEC3G degradation inhibitor project, dose response (AID 1117362); type: functional
[9] = target: Intestinal-type alkaline phosphatase (Mus musculus, UniProt P24822); assay: PubChem AID 488785; type: functional

Polyadenylate-binding protein 1, sequence (P11940 whole entry, the tested form may be a part): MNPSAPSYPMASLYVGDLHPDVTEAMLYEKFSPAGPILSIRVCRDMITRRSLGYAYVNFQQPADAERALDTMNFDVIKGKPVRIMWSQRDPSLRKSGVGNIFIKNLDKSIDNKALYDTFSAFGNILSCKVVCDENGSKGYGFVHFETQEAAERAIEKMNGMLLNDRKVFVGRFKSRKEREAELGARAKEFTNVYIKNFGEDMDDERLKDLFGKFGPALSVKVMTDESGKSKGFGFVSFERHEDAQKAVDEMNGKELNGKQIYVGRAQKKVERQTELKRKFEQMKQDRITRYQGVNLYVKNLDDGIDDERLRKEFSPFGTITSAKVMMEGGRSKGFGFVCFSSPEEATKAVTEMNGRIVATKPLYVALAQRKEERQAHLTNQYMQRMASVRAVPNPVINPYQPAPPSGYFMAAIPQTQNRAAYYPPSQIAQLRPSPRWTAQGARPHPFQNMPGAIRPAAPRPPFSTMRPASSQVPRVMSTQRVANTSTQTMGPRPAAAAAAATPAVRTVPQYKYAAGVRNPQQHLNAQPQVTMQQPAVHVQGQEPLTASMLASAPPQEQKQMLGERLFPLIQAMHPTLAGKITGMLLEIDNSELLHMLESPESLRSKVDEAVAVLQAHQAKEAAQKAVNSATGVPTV
Glutathione-S-transferase, sequence (Q26513 whole entry): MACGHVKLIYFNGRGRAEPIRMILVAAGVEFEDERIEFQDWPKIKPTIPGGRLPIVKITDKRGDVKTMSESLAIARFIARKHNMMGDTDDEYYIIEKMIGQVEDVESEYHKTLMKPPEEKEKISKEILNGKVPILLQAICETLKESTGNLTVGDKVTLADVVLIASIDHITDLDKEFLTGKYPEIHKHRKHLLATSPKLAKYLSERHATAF
Large T antigen, sequence (P03070 whole entry): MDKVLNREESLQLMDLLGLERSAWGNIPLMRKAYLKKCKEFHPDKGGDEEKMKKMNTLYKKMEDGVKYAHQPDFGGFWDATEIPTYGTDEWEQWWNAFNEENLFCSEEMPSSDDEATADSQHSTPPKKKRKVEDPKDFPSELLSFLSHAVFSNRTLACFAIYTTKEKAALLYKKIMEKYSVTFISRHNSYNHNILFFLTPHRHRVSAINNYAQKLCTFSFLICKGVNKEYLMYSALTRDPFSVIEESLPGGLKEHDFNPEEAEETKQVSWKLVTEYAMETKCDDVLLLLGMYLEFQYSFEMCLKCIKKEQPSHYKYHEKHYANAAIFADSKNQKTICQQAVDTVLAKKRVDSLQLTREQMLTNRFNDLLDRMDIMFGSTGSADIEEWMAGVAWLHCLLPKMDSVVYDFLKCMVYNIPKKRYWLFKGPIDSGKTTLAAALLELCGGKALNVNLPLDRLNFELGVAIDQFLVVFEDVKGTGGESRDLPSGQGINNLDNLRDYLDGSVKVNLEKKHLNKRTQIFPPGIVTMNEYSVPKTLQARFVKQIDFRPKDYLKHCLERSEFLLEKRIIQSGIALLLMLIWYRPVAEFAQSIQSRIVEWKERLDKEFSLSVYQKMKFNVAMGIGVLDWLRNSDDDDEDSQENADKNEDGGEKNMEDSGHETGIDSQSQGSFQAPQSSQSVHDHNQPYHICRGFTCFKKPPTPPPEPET
Procathepsin L, sequence (P07711 whole entry, the tested form may be a part): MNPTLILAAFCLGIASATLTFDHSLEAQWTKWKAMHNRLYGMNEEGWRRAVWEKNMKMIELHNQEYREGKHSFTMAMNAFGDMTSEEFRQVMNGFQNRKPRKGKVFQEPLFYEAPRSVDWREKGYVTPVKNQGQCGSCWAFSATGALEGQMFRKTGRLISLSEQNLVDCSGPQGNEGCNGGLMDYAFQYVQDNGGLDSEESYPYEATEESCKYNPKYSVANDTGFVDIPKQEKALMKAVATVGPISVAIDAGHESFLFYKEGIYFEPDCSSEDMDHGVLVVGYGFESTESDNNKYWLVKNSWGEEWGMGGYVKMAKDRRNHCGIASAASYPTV
Voltage-gated N-type calcium channel alpha-1B subunit/Amyloid beta A4 precursor protein-binding family A member 1, sequence (Q00975 whole entry): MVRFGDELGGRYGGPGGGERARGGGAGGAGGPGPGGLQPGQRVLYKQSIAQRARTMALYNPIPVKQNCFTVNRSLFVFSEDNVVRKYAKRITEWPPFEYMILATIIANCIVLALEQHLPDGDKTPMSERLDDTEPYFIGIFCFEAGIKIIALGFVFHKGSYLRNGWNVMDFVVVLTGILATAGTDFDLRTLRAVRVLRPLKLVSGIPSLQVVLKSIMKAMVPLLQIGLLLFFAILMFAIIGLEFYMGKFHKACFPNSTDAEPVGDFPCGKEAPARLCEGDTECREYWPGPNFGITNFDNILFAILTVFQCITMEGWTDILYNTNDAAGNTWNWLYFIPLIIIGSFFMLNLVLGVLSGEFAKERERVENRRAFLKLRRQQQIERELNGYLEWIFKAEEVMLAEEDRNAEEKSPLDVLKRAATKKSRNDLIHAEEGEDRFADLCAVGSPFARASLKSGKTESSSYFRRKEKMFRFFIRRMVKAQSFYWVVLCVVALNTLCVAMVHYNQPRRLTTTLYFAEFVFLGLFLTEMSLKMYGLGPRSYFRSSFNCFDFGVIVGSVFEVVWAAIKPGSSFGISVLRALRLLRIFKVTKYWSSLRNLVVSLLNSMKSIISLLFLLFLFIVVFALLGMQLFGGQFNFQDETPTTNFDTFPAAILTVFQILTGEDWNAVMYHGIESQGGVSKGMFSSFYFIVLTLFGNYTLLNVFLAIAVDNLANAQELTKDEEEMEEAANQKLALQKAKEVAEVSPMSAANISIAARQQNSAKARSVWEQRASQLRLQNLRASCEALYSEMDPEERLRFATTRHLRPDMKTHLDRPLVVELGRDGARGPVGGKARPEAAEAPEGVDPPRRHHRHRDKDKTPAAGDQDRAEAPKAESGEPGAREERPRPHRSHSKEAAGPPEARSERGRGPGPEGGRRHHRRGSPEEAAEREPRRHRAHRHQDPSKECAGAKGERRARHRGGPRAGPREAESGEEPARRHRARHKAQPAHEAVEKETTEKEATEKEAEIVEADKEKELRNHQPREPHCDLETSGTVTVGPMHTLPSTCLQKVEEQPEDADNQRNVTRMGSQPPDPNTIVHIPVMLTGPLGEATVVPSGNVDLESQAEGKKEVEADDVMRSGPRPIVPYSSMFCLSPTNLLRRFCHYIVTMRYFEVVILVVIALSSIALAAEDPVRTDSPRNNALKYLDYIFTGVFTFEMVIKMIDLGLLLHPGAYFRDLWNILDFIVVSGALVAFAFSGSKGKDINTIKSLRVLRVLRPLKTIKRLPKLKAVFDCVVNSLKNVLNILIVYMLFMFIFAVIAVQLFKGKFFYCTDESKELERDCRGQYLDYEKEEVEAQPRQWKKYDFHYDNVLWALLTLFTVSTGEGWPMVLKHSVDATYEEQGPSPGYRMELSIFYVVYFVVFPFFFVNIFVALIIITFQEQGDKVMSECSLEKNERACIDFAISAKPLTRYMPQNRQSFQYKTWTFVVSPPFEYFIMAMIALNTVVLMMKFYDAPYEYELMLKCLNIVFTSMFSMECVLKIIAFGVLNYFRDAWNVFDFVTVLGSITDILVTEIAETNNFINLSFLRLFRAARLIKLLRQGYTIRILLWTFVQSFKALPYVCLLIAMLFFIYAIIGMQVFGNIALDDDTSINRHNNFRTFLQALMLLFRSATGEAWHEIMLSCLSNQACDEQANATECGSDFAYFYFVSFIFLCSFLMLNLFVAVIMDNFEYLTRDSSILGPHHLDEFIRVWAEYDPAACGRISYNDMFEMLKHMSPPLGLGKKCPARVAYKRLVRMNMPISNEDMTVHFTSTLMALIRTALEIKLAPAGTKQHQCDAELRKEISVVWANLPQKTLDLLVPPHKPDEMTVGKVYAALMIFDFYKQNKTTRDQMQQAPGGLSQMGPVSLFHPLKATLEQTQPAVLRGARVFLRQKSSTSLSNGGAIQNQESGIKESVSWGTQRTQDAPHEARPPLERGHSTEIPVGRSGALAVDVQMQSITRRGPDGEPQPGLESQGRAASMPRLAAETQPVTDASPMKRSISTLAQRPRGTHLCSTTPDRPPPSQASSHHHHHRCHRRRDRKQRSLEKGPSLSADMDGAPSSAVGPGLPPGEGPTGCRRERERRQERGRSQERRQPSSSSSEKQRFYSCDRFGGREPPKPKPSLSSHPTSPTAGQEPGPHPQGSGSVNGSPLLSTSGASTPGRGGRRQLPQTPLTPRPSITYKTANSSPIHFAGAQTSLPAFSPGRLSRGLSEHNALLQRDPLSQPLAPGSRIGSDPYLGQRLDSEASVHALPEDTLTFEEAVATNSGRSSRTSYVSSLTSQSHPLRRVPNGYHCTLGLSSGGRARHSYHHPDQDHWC
Voltage-gated N-type calcium channel alpha-1B subunit/Amyloid beta A4 precursor protein-binding family A member 1, sequence (Q02410 whole entry): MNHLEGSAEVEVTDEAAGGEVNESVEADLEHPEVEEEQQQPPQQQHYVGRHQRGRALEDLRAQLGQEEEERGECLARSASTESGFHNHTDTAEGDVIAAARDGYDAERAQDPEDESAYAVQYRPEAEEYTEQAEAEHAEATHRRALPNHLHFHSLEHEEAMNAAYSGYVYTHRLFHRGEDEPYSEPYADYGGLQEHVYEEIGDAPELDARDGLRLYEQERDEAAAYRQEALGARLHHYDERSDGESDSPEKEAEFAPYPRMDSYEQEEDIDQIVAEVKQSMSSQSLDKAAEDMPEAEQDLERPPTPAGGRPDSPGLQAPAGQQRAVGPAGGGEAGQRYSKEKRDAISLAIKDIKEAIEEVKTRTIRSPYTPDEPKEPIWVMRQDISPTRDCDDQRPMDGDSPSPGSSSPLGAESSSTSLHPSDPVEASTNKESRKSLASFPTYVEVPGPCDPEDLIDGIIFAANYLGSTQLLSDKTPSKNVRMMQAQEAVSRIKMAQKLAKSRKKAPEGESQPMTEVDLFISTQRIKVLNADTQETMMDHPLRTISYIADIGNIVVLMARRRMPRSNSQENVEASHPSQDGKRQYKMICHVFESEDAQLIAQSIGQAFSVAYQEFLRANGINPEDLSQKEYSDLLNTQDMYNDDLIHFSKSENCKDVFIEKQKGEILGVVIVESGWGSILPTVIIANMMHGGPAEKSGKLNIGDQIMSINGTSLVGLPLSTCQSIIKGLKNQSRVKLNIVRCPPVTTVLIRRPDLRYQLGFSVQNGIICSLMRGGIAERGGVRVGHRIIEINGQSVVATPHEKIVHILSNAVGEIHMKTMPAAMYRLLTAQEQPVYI

O=C(O)c1cc(N2N=C(C(F)(F)F)/C(=C/C=C/c3ccco3)C2=O)ccc1Cl
IC50 [1]: 24.6 µM (active)
IC50 (Large T antigen): 4.47 µM (active)
IC50 [2]: 94.3 µM (active)
IC50 (Troponin, cardiac muscle): > 2.65 µM (active)

Cc1cc(C)c(S(=O)(=O)Nc2cc(SCC(=O)O)c(O)c3ccccc23)cc1C
IC50 (Aminopeptidase N): 48.5 µM (active)
IC50 [3]: 8.73 µM (active)

CNCc1ccccc1Sc1ccc(O)c(O)c1
IC50 (Aspartyl aminopeptidase): 1.89 µM (active)
IC50 (Procathepsin L): > 59.6 µM (not active)
IC50 [4]: > 66 µM (inactive)
AC50 [5]: > 20 µM (inactive)
AC50 [6]: > 52 µM (inactive)
AC50 [7]: > 52 µM (inactive)
IC50 [8]: 16 µM (active)

O=C(/C=C/c1ccco1)NC(=S)Nc1cccc(C(=O)O)c1
IC50 [9]: 9.52 µM (active)
